Test results taken from the supplement of paper PMC11208160.

Assay: recombinant barcode read abundance after kanamycin selection (control-corrected) (log10(CPM+1)); higher = more efficient recombination; sequences stand for … in AGTGCAGAGAAAATCGGCCAGTTTTCTCTGCCTGCAGTCCGCATGCCGT…AGATTTATGCAGCGGACTGCCTTTCTCCCAAAGTGATAAACCGGACAGTATCATGGACCGGTTTTCCCGGTAATCCGTATTTGCAAGGTTGGTTTCACT; site = the 11-nt target
How it was run: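 Recombination efficiency draws on barcodes counted at recombinant junctions in a pooled E. coli screen of targets paired with IS621 bridge RNA target-binding loops. The counts were converted to counts per million, averaged and corrected against the chloramphenicol/ampicillin LB agar control, then reported as log10(CPM+1). Selection plates held chloramphenicol/ampicillin/kanamycin with 0.1 mM IPTG, with two replicates per condition.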
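Further: IS621 recombinase and bridge RNA in Escherichia coli cells.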

| Sequence | recombinant barcode read abundance (log10) |
| --- | --- |
| CTAGACTCTTGGGTTCTAACCTGTTGCAG (site CTAGACTCTCT) | 2.42 |
| CTAGACTCTTGGGTTCTAACCTGTTGCAG (site CTAGACTCTGT) | 1.16 |
| CTAGACTCTTGGGTTCTAACCTGTTGCAG (site CTAGACTCTTT) | 0.376 |
| CTAGCGACTTGGGTTCTAACCTGTTGCAC (site AGGAGAGCTAA) | 0.409 |
| CTAGCGACTTGGGTTCTAACCTGTTGCAC (site CTAGCGACTGT) | 1.15 |
| CTAGCGACTTGGGTTCTAACCTGTTGCCG (site ACGCTATCTAA) | 0.102 |
| CTAGCGACTTGGGTTCTAACCTGTTGCCG (site CTAGCGACTCG) | 0.834 |
| CTAGCTCCTTGGGTTCTAACCTGTTGCTT (site CTAGCTCCTAA) | 0.0882 |
| CTAGCTCCTTGGGTTCTAACCTGTTGCTT (site GCTTGGTCTTC) | 0.0776 |
| CTAGGAGCTTGGGTTCTAACCTGTTGCCT (site CTAGGACCTTG) | 0.0183 |
| CTAGGAGCTTGGGTTCTAACCTGTTGCCT (site CTAGGAGCTAG) | 0.148 |
| CTAGGAGCTTGGGTTCTAACCTGTTGCTA (site CTAGGAGCTAA) | 0.137 |
| CTAGGAGCTTGGGTTCTAACCTGTTGCTA (site CTAGGAGCTCA) | 0.231 |
| CTAGGAGCTTGGGTTCTAACCTGTTGCTA (site CTAGGAGCTGA) | 0.0444 |
| CTAGGAGCTTGGGTTCTAACCTGTTGCTA (site CTAGGAGCTTA) | 1.23 |
| CTAGGAGCTTGGGTTCTAACCTGTTGCTG (site CTAGGAGCTAA) | 0.19 |

| Sequence | recombinant barcode read abundance (log10) |
| --- | --- |
| CTAGGAGCTTGGGTTCTAACCTGTTGCTG (site CTAGGAGCTCA) | 1.75 |
| CTAGGAGCTTGGGTTCTAACCTGTTGCTG (site CTAGGAGCTGA) | 0.169 |
| CTAGGAGCTTGGGTTCTAACCTGTTGCTG (site CTAGGAGCTTA) | 0.073 |
| CTAGGATCTTGGGTTCTAACCTGTTGCCA (site CTAGGATCTAT) | 0.844 |
| CTAGGATCTTGGGTTCTAACCTGTTGCCA (site CTAGGATCTTG) | 0.24 |
| CTAGGCCCTTGGGTTCTAACCTGTTGCGT (site CTAGGCCCTAA) | 0.361 |
| CTAGGCCCTTGGGTTCTAACCTGTTGCGT (site CTAGGCCCTAC) | 3.3 |
| CTAGGCCCTTGGGTTCTAACCTGTTGCGT (site CTAGGCCCTAG) | 0.264 |
| CTAGGCCCTTGGGTTCTAACCTGTTGCGT (site CTAGGCCCTAT) | 2.28 |
| CTAGTAGCTTGGGTTCTAACCTGTTGCCG (site CTAGTAGCTCG) | 1.84 |
| CTAGTAGCTTGGGTTCTAACCTGTTGCCG (site CTATTAGCTCG) | 0.277 |
| CTAGTAGCTTGGGTTCTAACCTGTTGCGT (site CTAGTAGCTAC) | 2.25 |
| CTAGTAGCTTGGGTTCTAACCTGTTGCGT (site CTAGTAGCTCC) | 0.378 |
| CTAGTCTCTTGGGTTCTAACCTGTTGCGT (site CTAGGATCTAC) | 0.0308 |
| CTAGTCTCTTGGGTTCTAACCTGTTGCGT (site CTAGTCTCTAC) | 3.07 |
| CTAGTGACTTGGGTTCTAACCTGTTGCGC (site CTAGTGACTAC) | 0.0258 |
